In patent US20230265151A1, “GIP/GLP1 CO-AGONIST COMPOUNDS” (priority 2020, published 2023) one finds EC50 and Emax data, which are given here for 2 compounds.

What all share (format): cell-based
Test [1] deals with hGLP-1R (Homo sapiens, UniProt P43220). Description: Functional cAMP formation (HTRF) in HEK-293 clonal cells expressing hGLP-1R, 0.1% bovine casein, without or with 1.0% human serum albumin. Details: expressed in transfected cells. The following applies: for EC50: hGLP-1R EC50, nM (SEM, n), cAMP, 37° C. The method, boiled down:
(§1)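 Readings of the HTRF 665/620 nm ratio, which falls as cAMP rises, were converted to nM cAMP using a standard curve after 30 min peptide exposure at 37° C.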
(Cyclic AMP is a second messenger, typically raised through Gs and lowered through Gi signalling.)

The target of test [2] is T1, hGIPR (Homo sapiens, UniProt P48546).
T1 construct: expressed in transfected cells
T1 sequence (P48546 22-466): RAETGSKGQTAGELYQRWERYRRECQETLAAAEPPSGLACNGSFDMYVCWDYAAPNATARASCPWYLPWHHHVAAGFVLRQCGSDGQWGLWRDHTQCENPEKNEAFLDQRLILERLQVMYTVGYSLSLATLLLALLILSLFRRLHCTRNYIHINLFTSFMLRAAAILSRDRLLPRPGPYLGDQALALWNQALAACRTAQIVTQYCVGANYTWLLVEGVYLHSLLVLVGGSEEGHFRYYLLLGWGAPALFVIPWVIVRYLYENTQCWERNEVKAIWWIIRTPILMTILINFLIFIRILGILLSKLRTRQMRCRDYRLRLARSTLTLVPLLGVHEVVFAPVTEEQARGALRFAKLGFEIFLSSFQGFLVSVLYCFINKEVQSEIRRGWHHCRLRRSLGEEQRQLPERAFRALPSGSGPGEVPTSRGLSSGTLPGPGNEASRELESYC
Description: Functional cAMP formation (HTRF) in HEK-293 clonal cells expressing hGIPR, 0.1% bovine casein, without or with 1.0% human serum albumin. The following applies: for Emax: percent of maximal response to GIP(1-42)NH2; for EC50: hGIPR EC50, nM (SEM, n), 37° C., geometric mean. The method, boiled down: as §1

Test [3] addresses T2, hGCGR (Homo sapiens, UniProt P47871).
T2 construct: expressed in transfected cells
Description: Functional cAMP formation (HTRF) in HEK-293 clonal cells expressing hGCGR, 0.1% bovine casein, without or with 1.0% human serum albumin. The following applies: hGCGR EC50, nM (SEM, n), 37° C. The method, boiled down:
as §1

[4] abbreviates: 0.1% bovine casein (no human serum albumin), geometric mean.
Where [5] appears, read: cAMP, 0.1% bovine casein (no human serum albumin).
Setting [6] is: cAMP, 0.1% bovine casein (no human serum albumin), geometric mean.

Where two headings read alike, the source gives them in different places.

Sequence of hGLP-1R (P43220 24-463): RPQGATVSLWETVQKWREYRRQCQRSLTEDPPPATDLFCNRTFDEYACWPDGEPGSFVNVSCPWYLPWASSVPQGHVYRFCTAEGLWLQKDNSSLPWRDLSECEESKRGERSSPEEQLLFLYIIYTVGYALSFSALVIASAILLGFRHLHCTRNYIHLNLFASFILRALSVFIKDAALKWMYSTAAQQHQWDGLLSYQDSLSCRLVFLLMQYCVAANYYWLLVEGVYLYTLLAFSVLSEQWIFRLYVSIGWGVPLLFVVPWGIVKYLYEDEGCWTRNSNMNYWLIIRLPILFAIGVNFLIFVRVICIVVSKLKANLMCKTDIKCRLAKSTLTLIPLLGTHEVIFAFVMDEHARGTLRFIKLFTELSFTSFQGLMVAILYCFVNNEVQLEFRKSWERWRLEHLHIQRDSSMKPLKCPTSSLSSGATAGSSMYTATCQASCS
T2 sequence (P47871 26-477): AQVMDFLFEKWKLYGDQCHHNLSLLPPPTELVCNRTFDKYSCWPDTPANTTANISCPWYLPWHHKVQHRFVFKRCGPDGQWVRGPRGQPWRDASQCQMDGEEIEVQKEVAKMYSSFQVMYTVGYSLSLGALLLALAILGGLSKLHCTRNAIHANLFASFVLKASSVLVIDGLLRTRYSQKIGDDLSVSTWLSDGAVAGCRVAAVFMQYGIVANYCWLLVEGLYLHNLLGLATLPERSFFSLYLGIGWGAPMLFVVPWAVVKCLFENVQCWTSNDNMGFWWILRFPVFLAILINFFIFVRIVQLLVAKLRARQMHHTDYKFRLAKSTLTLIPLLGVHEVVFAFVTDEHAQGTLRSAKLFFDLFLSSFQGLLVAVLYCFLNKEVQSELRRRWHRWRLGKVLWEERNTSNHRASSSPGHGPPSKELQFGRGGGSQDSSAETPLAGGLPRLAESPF

Usually EC50 stands for the midpoint of the concentration-response curve. Read a low EC50 as greater potency. By Emax is commonly meant the size of the effect at its maximum, as opposed to the concentration needed. Regarding `CC[C@H](C)[C@H](NC(=O)[C@H](CC(C)C)NC(=O)[C@](C)(Cc1ccc(O)cc1)NC(=O)[C@@H](CCC(=O)O)NC(=O)[C@@H](NC(=O)[C@H](Cc1ccccc1)NC(=O)[C@H](CCC(=O)O)NC(=O)C(C)(C)NC(=O)[C@H](CCC(N)=O)NC(=O)[C@H](C)NC(=O)[C@H](CCCCNC(=O)COCCOCCNC(=O)COCCOCCNC(=O)CC[C@H](NC(=O)CCCCCCCCCOc1ccc(C(=O)O)cc1)C(=O)O)NC(=O)[C@H](CCCN)NC(=O)[C@H](CC(=O)O)NC(=O)[C@H](CC(C)C)NC(=O)[C@](C)(CC(C)C)NC(=O)[C@@H](NC(=O)[C@H](CO)NC(=O)[C@H](CCc1ccc(O)cc1)NC(=O)[C@H](CC(=O)O)NC(=O)[C@H](CO)NC(=O)[C@@H](NC(=O)[C@](C)(Cc1ccccc1F)NC(=O)[C@@H](NC(=O)CNC(=O)[C@H](CCC(=O)O)NC(=O)C(C)(C)NC(=O)[C@@H](N)Cc1ccc(O)cc1)[C@@H](C)O)[C@@H](C)O)[C@@H](C)CC)[C@@H](C)CC)C(=O)N[C@@H](CCCCNC(=O)COCCOCCNC(=O)COCCOCCNC(=O)CC[C@H](NC(=O)CCCCCCCCCOc1ccc(C(=O)O)cc1)C(=O)O)C(=O)NCC(=O)NCC(=O)N1CCC[C@H]1C(=O)N[C@@H](CO)C(=O)N[C@@H](CO)C(=O)NCC(=O)N[C@@H](C)C(=O)N1CCC[C@H]1C(=O)N1CCC[C@H]1C(=O)N1CCC[C@H]1C(=O)N[C@@H](CO)C(N)=O` [Example 327], the EC50 in test [1] (setting [4]) was 0.211 nM; in test [1] (0.1% bovine casein and 1.0% human serum albumin, geometric mean (SEM, n)) it was 13.6 nM; in test [2] (setting [5]), 0.018 nM; in test [3] (setting [6]), above 9950 nM; in test [3] (cAMP, 0.1% bovine casein and 1.0% human serum albumin, geometric mean (SEM, n)), above 9950 nM. For the same compound, the Emax in test [2] (HEK293, read-out: hGIPR Emax, % ± SEM, cAMP, 37° C., 0.1% bovine casein and 1.0% human serum albumin) worked out at 90.2%.

As to `CC[C@H](C)[C@H](NC(=O)[C@H](CC(C)C)NC(=O)[C@](C)(Cc1ccc(O)cc1)NC(=O)[C@@H](CCC(=O)O)NC(=O)[C@@H](NC(=O)[C@H](Cc1ccccc1)NC(=O)[C@H](CCCCNC(=O)COCCOCCNC(=O)COCCOCCNC(=O)CC[C@H](NC(=O)CCCCCCCCCOc1ccc(C(=O)O)cc1)C(=O)O)NC(=O)C(C)(C)NC(=O)[C@H](CCC(N)=O)NC(=O)[C@H](C)NC(=O)[C@H](CCCCNC(=O)COCCOCCNC(=O)COCCOCCNC(=O)CC[C@H](NC(=O)CCCCCCCCCOc1ccc(C(=O)O)cc1)C(=O)O)NC(=O)[C@H](CCCN)NC(=O)[C@H](CC(=O)O)NC(=O)[C@H](CC(C)C)NC(=O)[C@](C)(CC(C)C)NC(=O)[C@@H](NC(=O)[C@H](CO)NC(=O)[C@H](Cc1ccc2ccccc2c1)NC(=O)[C@H](CC(=O)O)NC(=O)[C@H](CO)NC(=O)[C@@H](NC(=O)[C@](C)(Cc1ccccc1F)NC(=O)[C@@H](NC(=O)CNC(=O)[C@H](CCC(=O)O)NC(=O)C(C)(C)NC(=O)[C@@H](N)Cc1ccc(O)cc1)[C@@H](C)O)[C@@H](C)O)[C@@H](C)CC)[C@@H](C)CC)C(=O)N[C@@H](CCC(=O)O)C(=O)NCC(=O)NCC(=O)N1CCC[C@H]1C(=O)N[C@@H](CO)C(=O)N[C@@H](CO)C(=O)NCC(=O)N[C@@H](C)C(=O)N1CCC[C@H]1C(=O)N1CCC[C@H]1C(=O)N1CCC[C@H]1C(=O)N[C@@H](CO)C(N)=O` [Example 281], the Emax in test [1] (HEK293, read-out: hGLP-1R Emax, % ± SEM, 0.1% bovine casein and 1.0% human serum albumin, 37° C., percent of maximal response to GLP-1(7-36)NH2) worked out at 91.7%; in test [2] (HEK293, read-out: hGIPR Emax, % ± SEM, 0.1% bovine casein and 1.0% human serum albumin, 37° C.) it was 97.9%; in test [2] (HEK293, read-out: hGIPR Emax, % ± SEM, cAMP, 37° C., 0.1% bovine casein, arithmetic mean), 110%. In addition, the EC50 in test [1] (setting [4]) is 0.252 nM; in test [2] (0.1% bovine casein and 1.0% human serum albumin), 1.87 nM; in test [2] (setting [5]), 0.0187 nM; in test [3] (0.1% bovine casein and 1.0% human serum albumin, geometric mean) it was above 9950 nM; in test [3] (setting [6]) it was above 9950 nM.
